ChEMBL document CHEMBL5053538, “Precursor-Directed Biosynthesis of Talaroenamine Derivatives Using a Yellow River Wetland-Derived Penicillium malacosphaerulum” (2021)
Converted amounts (≈) assume the structure as drawn.

Tests used:
Assay type in all cases: functional
Bacillus cereus = experiment: Antimicrobial activity against Bacillus cereus assessed as inhibition of bacterial growth incubated for 24 hrs by agar dilution method
Proteus sp. = experiment: Antimicrobial activity against Proteus sp. assessed as inhibition of bacterial growth incubated for 24 hrs by agar dilution method; conditions: Proteus sp. (in: enterobacteria)
Bacillus subtilis = experiment: Antimicrobial activity against Bacillus subtilis assessed as inhibition of bacterial growth incubated for 24 hrs by agar dilution method
Escherichia coli = experiment: Antimicrobial activity against Escherichia coli assessed as inhibition of bacterial growth incubated for 24 hrs by agar dilution method
Pseudomonas = experiment: Antimicrobial activity against Pseudomonas assessed as inhibition of bacterial growth incubated for 24 hrs by agar dilution method
Mycolicibacterium phlei = experiment: Antimicrobial activity against Mycobacterium phlei assessed as inhibition of bacterial growth incubated for 24 hrs by agar dilution method
Edwardsiella tarda = experiment: Antimicrobial activity against Edwardsiella tarda assessed as inhibition of bacterial growth incubated for 24 hrs by agar dilution method
Acinetobacter baumannii = experiment: Antimicrobial activity against Acinetobacter baumannii assessed as inhibition of bacterial growth incubated for 24 hrs by agar dilution method

Row | SMILES | MIC (Bacillus cereus) | MIC (Proteus sp.) | MIC (Bacillus subtilis) | MIC (Escherichia coli) | MIC (Pseudomonas) | MIC (Mycolicibacterium phlei) | MIC (Edwardsiella tarda) | MIC (Acinetobacter baumannii)
1 | CC1=CC(=O)[C@@](C)(O)C(=O)/C1=C\Nc1ccc(F)c([N+](=O)[O-])c1 | > 10 µg/mL | > 10 µg/mL | > 10 µg/mL | > 10 µg/mL | > 10 µg/mL | > 10 µg/mL | > 10 µg/mL | > 10 µg/mL
2 | CC1=CC(=O)[C@@](C)(O)C(=O)/C1=C\Nc1ccc(Br)cc1F | > 10 µg/mL | > 10 µg/mL | > 10 µg/mL | 8.83 µg/mL (≈ 24.9 µM) | > 10 µg/mL | > 10 µg/mL | > 10 µg/mL | > 10 µg/mL
3 | CC1=CC(=O)[C@@](C)(O)C(=O)/C1=C\Nc1cccc(OC(F)(F)F)c1 | 2.13 µg/mL (≈ 6.24 µM) | 2.13 µg/mL (≈ 6.24 µM) | 2.13 µg/mL (≈ 6.24 µM) | 4.26 µg/mL (≈ 12.5 µM) | > 10 µg/mL | > 10 µg/mL | > 10 µg/mL | > 10 µg/mL
4 | CC1=CC(=O)[C@@](C)(O)C(=O)/C1=C\Nc1ccccc1 | > 10 µg/mL | > 10 µg/mL | > 10 µg/mL | > 10 µg/mL | > 10 µg/mL | > 10 µg/mL | > 10 µg/mL | > 10 µg/mL
5 | CC1=CC(=O)[C@@](C)(O)C(=O)/C1=C\Nc1cc(F)c(F)c(F)c1 | > 10 µg/mL | > 10 µg/mL | > 10 µg/mL | > 10 µg/mL | 7.76 µg/mL (≈ 24.9 µM) | > 10 µg/mL | > 10 µg/mL | > 10 µg/mL
6 | CC1=CC(=O)[C@@](C)(O)C(=O)/C1=C\Nc1ccc(Br)cc1 | > 10 µg/mL | > 10 µg/mL | > 10 µg/mL | > 10 µg/mL | > 10 µg/mL | > 10 µg/mL | > 10 µg/mL | > 10 µg/mL
7 | CC1=CC(=O)[C@@](C)(O)C(=O)/C1=C\Nc1ccc(C)cc1 | 0.85 µg/mL (≈ 3.13 µM) | 6.78 µg/mL (≈ 25 µM) | 6.78 µg/mL (≈ 25 µM) | 6.78 µg/mL (≈ 25 µM) | > 10 µg/mL | > 10 µg/mL | > 10 µg/mL | > 10 µg/mL
8 | O=C(O)c1cn(C2CC2)c2cc(N3CCNCC3)c(F)cc2c1=O [CIPROFLOXACIN] | 0.26 µg/mL (≈ 0.785 µM) | 0.06 µg/mL (≈ 0.181 µM) | 0.06 µg/mL (≈ 0.181 µM) | – | 1.04 µg/mL (≈ 3.14 µM) | 0.26 µg/mL (≈ 0.785 µM) | 0.02 µg/mL (≈ 0.0604 µM) | 2.07 µg/mL (≈ 6.25 µM)
